Data published in PubChem BioAssay AID330 (DTP/NCI, 2004).
Values joined by “and” are separate entries in the source; they are usually repeats but may differ in a detail not shown here. Equal values may be shown once. Toxic doses and inconclusive results are not listed. The calls were made as follows: active = survival T/C of 150% or more; inactive = T/C below 125% in these data.

Tested on: P388 leukemia ip, CD2F1 mice, survival T/C
Experiment: NCI In Vivo Anticancer Drug Screen. Data for tumor model P388 Leukemia (intraperitoneal) in CD2F1 (CDF1) mice
Conditions: endpoint: median survival time, higher = longer survival
In short: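 Mice carrying the transplanted tumor received test compound or vehicle. Survival was recorded in each group, and the value is the treated-group measurement divided by that of the vehicle-treated control group.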

[1] = dose: 50.0 mg/kg/injection, schedule: Q01DX009 (ip), vehicle: Klucel (hydroxypropylcellulose) (HPC)
[2] = dose: 100.0 mg/kg/injection, schedule: Q01DX009 (ip), vehicle: Klucel (hydroxypropylcellulose) (HPC)
[3] = dose: 200.0 mg/kg/injection, schedule: Q01DX009 (ip), vehicle: Klucel (hydroxypropylcellulose) (HPC)
[4] = dose: 50.0 mg/kg/injection, schedule: Q01DX009 (ip), vehicle: saline with Tween-80
[5] = dose: 100.0 mg/kg/injection, schedule: Q01DX009 (ip), vehicle: saline with Tween-80
[6] = dose: 200.0 mg/kg/injection, schedule: Q01DX009 (ip), vehicle: saline with Tween-80
[7] = dose: 12.5 mg/kg/injection, schedule: Q01DX005 (ip), vehicle: Klucel (hydroxypropylcellulose) (HPC)
[8] = dose: 25.0 mg/kg/injection, schedule: Q01DX009 (ip), vehicle: saline
[9] = dose: 50.0 mg/kg/injection, schedule: Q01DX009 (ip), vehicle: saline
[10] = dose: 100.0 mg/kg/injection, schedule: Q01DX009 (ip), vehicle: saline
[11] = dose: 100.0 mg/kg/injection, schedule: Q04DX003 (ip), vehicle: saline with Tween-80
[12] = dose: 200.0 mg/kg/injection, schedule: Q04DX003 (ip), vehicle: saline with Tween-80
[13] = dose: 400.0 mg/kg/injection, schedule: Q04DX003 (ip), vehicle: saline with Tween-80
[14] = dose: 50.0 mg/kg/injection, schedule: Q01DX005 (ip), vehicle: saline with Tween-80
[15] = dose: 100.0 mg/kg/injection, schedule: Q01DX005 (ip), vehicle: saline with Tween-80
[16] = dose: 200.0 mg/kg/injection, schedule: Q01DX005 (ip), vehicle: saline with Tween-80

Measured: T/C

CCCCCCCCCCCCCCCC(=O)NCCCCC(N)C(=O)O (stereo not given)
inactive: dose: 50.0 mg/kg/injection, schedule: Q01DX009 (ip), vehicle: suspension in saline 94 % of control | dose: 100.0 mg/kg/injection, schedule: Q01DX009 (ip), vehicle: suspension in saline 98 % of control | dose: 200.0 mg/kg/injection, schedule: Q01DX009 (ip), vehicle: suspension in saline 96 % of control

N#CC1C(=O)NC(=S)NC1c1ccc(Cl)c(Cl)c1 (stereo not given)
inactive: [1] 100 % of control | [2] 95 % of control | [3] 95 % of control

NC(=O)NN1CC(=O)N(c2ccccc2)CC1=O
inactive: [4] 97 % of control | [5] 100 % of control | [6] 95 % of control

Nc1nc(=O)nc2[nH]c3c4cccc5cccc(c3nc12)c54 (tested in a mixture with another compound)
inactive: [7] 92 % of control and 98 % of control | dose: 25.0 mg/kg/injection, schedule: Q01DX005 (ip), vehicle: Klucel (hydroxypropylcellulose) (HPC) 101 % of control and 104 % of control | dose: 50.0 mg/kg/injection, schedule: Q01DX005 (ip), vehicle: Klucel (hydroxypropylcellulose) (HPC) 100 % of control and 106 % of control and 112 % of control | dose: 100.0 mg/kg/injection, schedule: Q01DX005 (ip), vehicle: Klucel (hydroxypropylcellulose) (HPC) 116 % of control

NC(N)=N/N=C/C(Cl)Cl
inactive: [8] 109 % of control | dose: 25.0 mg/kg/injection, schedule: Q04DX003 (ip), vehicle: saline 100 % of control | [9] 100 % of control | dose: 50.0 mg/kg/injection, schedule: Q04DX003 (ip), vehicle: saline 100 % of control | [10] 118 % of control | dose: 100.0 mg/kg/injection, schedule: Q04DX003 (ip), vehicle: saline 100 % of control and 95 % of control

CC(=O)OCCn1c([N+](=O)[O-])cnc1/C=[N+](/C)[O-]
inactive: [9] 101 % of control | [10] 102 % of control | dose: 200.0 mg/kg/injection, schedule: Q01DX009 (ip), vehicle: saline 103 % of control

CCCCCn1c(Cl)c(/C=N\Nc2cccc([N+](=O)[O-])c2)c2ccccc21
inactive: [11] 100 % of control | [12] 91 % of control | [13] 90 % of control

COc1cc(-c2ccc(NC(=O)CC(C)=O)c(OC)c2)ccc1NC(=O)CC(C)=O
inactive: [11] 100 % of control | [12] 100 % of control | [13] 90 % of control

Cc1[nH]c2c(ccc3c2ccc2c(=O)c(C)c(C)[nH]c23)c(=O)c1C
inactive: [14] 95 % of control | [15] 96 % of control | [16] 95 % of control

CCC1=CC2CN(CCc3c([nH]c4ccccc34)C(C(=O)OC)(c3cc4c(cc3OC)N(C)C3C(C(=O)OC)=CC5(CC)CCCN6CCC43C65)C2)C1 (stereo not given)
inactive: dose: 12.5 mg/kg/injection, schedule: Q01DX001 (ip), vehicle: water 100 % of control | dose: 25.0 mg/kg/injection, schedule: Q01DX001 (ip), vehicle: water 100 % of control | dose: 50.0 mg/kg/injection, schedule: Q01DX001 (ip), vehicle: water 112 % of control | dose: 100.0 mg/kg/injection, schedule: Q01DX001 (ip), vehicle: water 100 % of control | dose: 200.0 mg/kg/injection, schedule: Q01DX001 (ip), vehicle: water 100 % of control

CCCCCCCCCCCCCCCCCCN(CCCCCCCCCCCCCCCCCC)c1ccc(/C=C/c2ccnc3ccccc23)cc1
inactive: dose: 25.0 mg/kg/injection, schedule: Q01DX009 (ip), vehicle: Klucel (hydroxypropylcellulose) (HPC) 104 % of control | [1] 95 % of control | [2] 95 % of control | [3] 104 % of control

CC(=O)OCC1(OC(=O)CC(C)C)COC(O)C2C(C=O)=CC=C21 (stereo not given)
inactive: dose: 3.12 mg/kg/injection, schedule: Q01DX005 (ip), vehicle: Klucel (hydroxypropylcellulose) (HPC) 102 % of control | dose: 6.25 mg/kg/injection, schedule: Q01DX005 (ip), vehicle: Klucel (hydroxypropylcellulose) (HPC) 100 % of control | [7] 101 % of control

COc1cc2c(cc1O)C(O)CCCC2 (stereo not given)
inactive: [4] 107 % of control | [5] 108 % of control | [6] 110 % of control

CN1CCCC2c3ccccc3CCC21 (stereo not given)
inactive: dose: 12.5 mg/kg/injection, schedule: Q04DX003 (ip), vehicle: Klucel (hydroxypropylcellulose) (HPC) 104 % of control | dose: 25.0 mg/kg/injection, schedule: Q04DX003 (ip), vehicle: Klucel (hydroxypropylcellulose) (HPC) 101 % of control

CC(C)C(N)C(=O)NC(C(=O)O)C(C)C (stereo not given)
inactive: dose: 6.25 mg/kg/injection, schedule: Q01DX005 (ip), vehicle: saline 95 % of control | dose: 12.5 mg/kg/injection, schedule: Q01DX005 (ip), vehicle: saline 95 % of control | dose: 25.0 mg/kg/injection, schedule: Q01DX005 (ip), vehicle: saline 96 % of control | dose: 50.0 mg/kg/injection, schedule: Q01DX005 (ip), vehicle: saline 98 % of control | dose: 100.0 mg/kg/injection, schedule: Q01DX005 (ip), vehicle: saline 88 % of control and 104 % of control | dose: 200.0 mg/kg/injection, schedule: Q01DX005 (ip), vehicle: saline 100 % of control

O=C(O)CCCCCCCCCCNC(=O)CCl
inactive: [1] 88 % of control | [2] 91 % of control

Cc1cc2nnc(-c3ccc(C#N)cc3)n2c2nnnn12
inactive: dose: 25.0 mg/kg/injection, schedule: Q01DX005 (ip), vehicle: saline with Tween-80 100 % of control | [14] 100 % of control | [15] 104 % of control | [16] 104 % of control

CC(=O)NCc1cc(C)c(CCl)cc1CCl
inactive: dose: 3.13 mg/kg/injection, schedule: Q01DX009 (ip), vehicle: distilled water + Tween-80 103 % of control | dose: 6.25 mg/kg/injection, schedule: Q01DX009 (ip), vehicle: distilled water + Tween-80 114 % of control and 117 % of control | dose: 12.5 mg/kg/injection, schedule: Q01DX009 (ip), vehicle: distilled water + Tween-80 122 % of control and 123 % of control | dose: 25.0 mg/kg/injection, schedule: Q01DX009 (ip), vehicle: distilled water + Tween-80 116 % of control

NP(N)(=O)NC(=O)c1ccc(F)cc1
inactive: [14] 100 % of control | [15] 100 % of control

CSc1ccc2c(c1)C(N1CCN(C)CC1)Cc1ccccc1S2 (stereo not given)
inactive: dose: 6.25 mg/kg/injection, schedule: Q01DX009 (ip), vehicle: saline with Tween-80 106 % of control and 107 % of control and 114 % of control | dose: 12.5 mg/kg/injection, schedule: Q01DX009 (ip), vehicle: saline with Tween-80 103 % of control and 107 % of control and 95 % of control | dose: 12.5 mg/kg/injection, schedule: Q01DX009 (ip), vehicle: saline 117 % of control | dose: 25.0 mg/kg/injection, schedule: Q01DX009 (ip), vehicle: saline with Tween-80 86 % of control and 95 % of control | [8] 118 % of control

COc1cc(Br)cc(/C=C/[N+](=O)[O-])c1OC
inactive: [4] 115 % of control

ClCCCSSCCCCl
inactive: dose: 30.0 mg/kg/injection, schedule: Q01DX005 (ip), vehicle: saline with Tween-80 107 % of control | dose: 60.0 mg/kg/injection, schedule: Q01DX005 (ip), vehicle: saline with Tween-80 110 % of control

CCC1C(=O)OCCOCCOCCOCCOCCOC1=O
inactive: [1] 100 % of control | [2] 107 % of control | [3] 99 % of control

CC(C)C(C)CS(=O)(=O)OCCCCOS(=O)(=O)CC(C)C(C)C (stereo not given)
inactive: dose: 50.0 mg/kg/injection, schedule: Q01DX005 (ip), vehicle: suspension in saline 103 % of control | dose: 100.0 mg/kg/injection, schedule: Q01DX005 (ip), vehicle: suspension in saline 105 % of control | dose: 200.0 mg/kg/injection, schedule: Q01DX005 (ip), vehicle: suspension in saline 112 % of control
